Experimental data from patent US20220347305A1, “CONTROLLED RELEASE DRUG DIMERS” (Ripple Therapeutics Corporation, priority 2019, published 2022).

Assays:
[1] = Drug release and erosion of Compound 1 heat-molded pellets in release buffer (PBS, 1% FBS in PBS, 100% FBS); type: physicochemical; settings: 37° C., 115 rpm
Procedure: Heat-molded pellets from Compound 1 (˜1 mm×1 mm) were then placed in 20 mL glass vials and 2 mL of release buffer (either 100% phosphate buffered saline (PBS), 1% fetal bovine serum (FBS) in PBS, or 100% FBS) was added. Samples were incubated at 37° C. on a shaker rotating at 115 rpm. After 1 day, 3 days, 7 days, and subsequently in alternating 3 and 4 day intervals (i.e., 1, 3, 7, 10, 14 days etc.), release buffer was sampled directly (PBS) or syringe filtered, proteins were precipitated with acetonitrile, and drug release products were extracted. The samples were analyzed by high performance liquid chromatography (HPLC) to quantify drug products. Cumulative drug release was calculated and plotted as a percentage of the total drug in each pellet released over time (FIG. 1E).

[2] = Pellet formation by heat molding (heat processing of compounds); type: physicochemical; settings: processed ~10-30° C. above Tg or Tm, pressed into cylindrical mold ~1 mm x 1 mm, light microscopy
Procedure: Crystalline powder was melted at 185° C. and pellets were formed from 1 mm×1 mm cylindrical molds. The starting powder and heat-processed pellets were tested by differential scanning calorimetry (DSC; FIG. 1C) and X-ray powder diffraction (XRPD; FIG. 1D) to confirm heat-processing converted Compound 1 from the crystalline state to the glassy state.
Compounds that were collected as stable powders and/or gums were investigated for pellet formation by heat molding. Compounds were processed at a temperature ˜10-30° C. above their corresponding thermal transitions (glass transition temperature (Tg) for gums or amorphous powders or melting point (Tm) for crystalline powders) and pressed into a cylindrical mold of ˜1 mm in height×1 mm in diameter. Light microscopy was used to capture images of the heat-formed pellets. Temperatures used to achieve a melt for heat molding were in a range from 70° C. to 220° C.

[3] = Drug release from heat-molded pellets in phosphate buffered saline; type: physicochemical; settings: 37° C.; for Observation of pellet after 1-day incubation in release buffer: 4 mL PBS, shaker 115 rpm
Procedure: Drug release from heat-molded pellets of the compounds were assessed in phosphate buffered saline (PBS). Heat-molded pellets were placed in 20 ml glass vials and 2 ml of release buffer was added. Samples were incubated at 37° C. with constant agitation at 115 rpm. Release buffer was sampled and fully replaced with 2 ml of fresh buffer on days 1, 3, 7, 10, and 14. Samples were analyzed by high performance liquid chromatography (HPLC) to quantify drug products. Cumulative release was calculated as a percentage of total mass of starting pellets and was plotted over time.
Heat molded pellets of Compound 3, Compound 5, and Compound 8 were then placed in 20 mL glass vials and 4 mL of release buffer (phosphate buffered saline, PBS) was added. Samples were incubated at 37° C. on a shaker rotating at 115 rpm. […] Drug release from Compound 8 was assessed by HPLC from PBS release buffer weekly for 8 weeks with full buffer change at each time point.

| Compound | Pellet formation by heat molding and handling properties of the pellet [2] | melting point | other results |
| --- | --- | --- | --- |
| C[C@@H]1C[C@H]2[C@@H]3CCC4=CC(=O)C=C[C@]4(C)[C@@]3(F)[C@@H](O)C[C@]2(C)[C@@]1(O)C(=O)COC(=O)OCCOCCOCCOC(=O)OCC(=O)[C@@]1(O)[C@H](C)C[C@H]2[C@@H]3CCC4=CC(=O)C=C[C@]4(C)[C@@]3(F)[C@@H](O)C[C@@]21C [Compound 1, Dexamethasone-Triethylene Glycol-Dexamethasone] | formed into pellets in the glassy state | – | Erosion of pellets over time (representative images) [1]: surface erosion over time |
| O=C(OCCCCCCCOC(=O)N1CCCN(S(=O)(=O)c2cccc3cnccc23)CC1)N1CCCN(S(=O)(=O)c2cccc3cnccc23)CC1 [Compound 3, heptane-1,7-diyl bis(4-(isoquinolin-5-ylsulfonyl)-1,4-diazepane-1-carboxylate)] | successfully formed glassy, mostly transparent pellets | – | Observation of pellet after 1-day incubation in release buffer [3]: pellet shape changed to a clear gel |
| O=C(CCCCCCCCC(=O)N1CCCN(S(=O)(=O)c2cccc3cnccc23)CC1)N1CCCN(S(=O)(=O)c2cccc3cnccc23)CC1 [Compound 5, 1,10-bis(4-(isoquinolin-5-ylsulfonyl)-1,4-diazepan-1-yl)decane-1,10-dione] | successfully formed glassy, mostly transparent pellets | – | Observation of pellet after 1-day incubation in release buffer [3]: fragmented entirely to opaque particulates |
| N[C@@H](Cc1ccc(O)c(O)c1)C(=O)OCC1CCC(COC(=O)[C@@H](N)Cc2ccc(O)c(O)c2)CC1 (stereo partly drawn) [Compound 6, cyclohexane-1,4-diylbis(methylene) (2S,2′S)-bis(2-amino-3-(3,4-dihydroxyphenyl)propanoate)] | – | 161 to 166 °C | – |
| COc1ccc2c(c1)c(CC(=O)OCCOCCOCCOC(=O)Cc1c(C)n(C(=O)c3ccc(Cl)cc3)c3ccc(OC)cc13)c(C)n2C(=O)c1ccc(Cl)cc1 [Compound 8, (ethane-1,2-diylbis(oxy))bis(ethane-2,1-diyl) bis(2-(1-(4-chlorobenzoyl)-5-methoxy-2-methyl-1H-indol-3-yl)acetate)] | formed opaque yellow-tinted pellets that could be handled | 102 °C | Drug release from pellet assessed by HPLC ([3]; PBS release buffer, weekly for 8 weeks with full buffer change): Minimal drug release |
| C=CCN1CC[C@]23c4c5ccc(OC(=O)CCCCC(=O)Oc6ccc7c8c6O[C@H]6C(=O)CC[C@@]9(O)[C@@H](C7)N(CC=C)CC[C@]869)c4O[C@H]2C(=O)CC[C@@]3(O)[C@H]1C5 [Compound 9, bis((4R,4aS,7aR,12bS)-3-allyl-4a-hydroxy-7-oxo-2,3,4,4a,5,6,7,7a-octahydro-1H-4,12-methanobenzofuro[3,2-e]isoquinolin-9-yl) adipate] | – | 120 °C | – |
| O=C(CCCCC(=O)Oc1ccc2c3c1O[C@H]1C(=O)CC[C@@]4(O)[C@@H](C2)N(CC2CC2)CC[C@]314)Oc1ccc2c3c1O[C@H]1C(=O)CC[C@@]4(O)[C@@H](C2)N(CC2CC2)CC[C@]314 [Compound 10, bis((4R,4aS,7aR,12bS)-3-(cyclopropylmethyl)-4a-hydroxy-7-oxo-2,3,4,4a,5,6,7,7a-octahydro-1H-4,12-methanobenzofuro[3,2-e]isoquinolin-9-yl) adipate] | didn't form a viscous liquid that could be pressed into a pellet | – | – |
| O=C(Oc1ccc2c3c1O[C@H]1C(=O)CC[C@@]4(O)[C@@H](C2)N(CC2CC2)CC[C@]314)c1ccc(C(=O)Oc2ccc3c4c2O[C@H]2C(=O)CC[C@@]5(O)[C@@H](C3)N(CC3CC3)CC[C@]425)cc1 [Compound 16, bis((4R,4aS,7aR,12bS)-3-(cyclopropylmethyl)-4a-hydroxy-7-oxo-2,3,4,4a,5,6,7,7a-octahydro-1H-4,12-methanobenzofuro[3,2-e]isoquinolin-9-yl) terephthalate] | – | – | Pellet formation by heat molding and handling properties of the pellet ([2]; listed as Naltrexone-1,4-terephthalate-Naltrexone): did not form a heat processed pellet |
